# Measurements published in patent US9776990B2, “Isoindolone derivatives” (AbbVie Inc., priority 2012, dated 2017).
# Marks after values point to notes of the source that are not given here.
# Key:
# [1] = test system: D54MG; assay: Proliferation panel assay, D54MG; type: cell-based; settings: 120 h, Glioblastoma, 5 days, read-out: Cellular Proliferation EC50
# Protocol: (§1) The impact of compounds of the Examples on cancer cell proliferation was determined using the breast cancer cell line MX-1 (ATCC) in a 3-day proliferation assay. MX-1 cells were maintained in RPMI supplemented with 10% FBS at 37 C.° and an atmosphere of 5% CO2. For compound testing, MX-1 cells were plated in 96-well black bottom plates at a density of 5000 cells/well in 90 μl of culture media and incubated at 37° overnight to allow cell adhesion and spreading. Compound dilution series were prepared in DMSO via a 3-fold serial dilution from 3 mM to 0.1 μM. […]
# (§2) Luminescence readings from the Cell Titer Glo assay were normalized to the DMSO treated cells and analyzed using the GraphPad Prism software with sigmoidal curve fitting to obtain EC50s. The minimum significant ratio (MSR) was determined to evaluate assay reproducibility (Eastwood et al., (2006) J Biomol Screen, 11: 253-261). The overall MSR was determined to be 2.1 and a moving MSR (last six run MSR overtime) has been <2.
# (§3) The compound of Example 40 was tested for its impact on proliferation of a panel of cancer cell line types (with specific cell lines tested) as set out in (Table 2). […] Cell proliferation data were analyzed as described above in the MX-1 proliferation assay to obtain the EC50 for the compounds reported in Table 2.
# [2] = test system: H460; assay: Proliferation panel assay, H460; type: cell-based; settings: Homo sapiens, NCI-H460, 120 h; NSCLC, H460, 5 days; read-out: Cellular Proliferation EC50
# Protocol: as §1, §2, §3
# [3] = test system: MX-1 human breast cancer xenograft; assay: Xenograft tumor growth inhibition assay, MX-1; type: in vivo, mice; settings: MX-1 xenograft; for % TGI (tumor growth inhibition): QDx14, based on day 38; for % TGD (tumor growth delay): QDx14, endpoint 1000 mm^3
# Protocol: (§4) The effect of the compound of Example 40 to inhibit the growth of Ramos, OPM-2, MX-1, MV4-11, and HT1080 xenograft tumors was evaluated. Briefly, 0.5×10^6 human cancer cells (HT1080), 1×10^6 human cancer cells (Ramos), 5×10^6 human cancer cells (OPM-2, MV4-11) or 1:10 tumor brie (MX-1) (in S-MEM (MEM, Suspension, no Calcium, no Glutamine)) (Life Technologies Corporation) were inoculated subcutaneously into the right hind flank of female SCID or SCID-beige (MV4-11, HT1080) mice (Charles Rivers Labs) on study day 0. Compound was formulated in 2% EtOH, 5% Tween-80, 20% PEG-400, 73% HPMC (Ramos, OPM-2 and MX-1) or 5% DMSO, 5% EtOH, 30% PEG400, 60% Phosal 53 (MV4-11, HT1080). Administration of compound was initiated at the time of size match on day 8 (HT1080), day 17 (MX-1), or day 18 (Ramos, MV4-11, OPM-2). The tumors were measured by a pair of calipers twice a week starting at the time of size match and tumor volumes were calculated according to the formula V=L×W^2/2 (V: volume, mm^3; L: length, mm. W: width, m) Tumor volume was measured for the duration of the experiment until the mean tumor volume in each group reached an endpoint of >1000 mm^3.
# [4] = test system: MDAMB231; assay: Proliferation panel assay, MDAMB231; type: cell-based; settings: Homo sapiens, MDA-MB-231, 120 h; Breast, MDAMB231, 5 days; read-out: Cellular Proliferation EC50
# Protocol: as §1, §2, §3
# [5] = test system: Ly18; assay: Proliferation panel assay, Ly18; type: cell-based; settings: 120 h; NHL, Ly18, 5 days; read-out: Cellular Proliferation EC50
# Protocol: as §1, §2, §3
# [6] = test system: DLD-1; assay: Proliferation panel assay, DLD-1; type: cell-based; settings: Homo sapiens, 120 h; Colon, DLD-1, 5 days; read-out: Cellular Proliferation EC50
# Protocol: as §1, §2, §3
# [7] = test system: HT1080 human fibrosarcoma xenograft; assay: Xenograft tumor growth inhibition assay, HT1080; type: in vivo, mice; settings: BID x 14, based on day 18
# Protocol: as §4
# [8] = test system: Raji; assay: Proliferation panel assay, Raji; type: cell-based; settings: Homo sapiens, 120 h, Burkitt lymphoma, 5 days, read-out: Cellular Proliferation EC50
# Protocol: as §1, §2, §3
# [9] = test system: SK-LMS-1; assay: Proliferation panel assay, SK-LMS-1; type: cell-based; settings: Homo sapiens, 120 h; Sarcoma, SK-LMS-1, 5 days; read-out: Cellular Proliferation EC50
# Protocol: as §1, §2, §3
# [10] = test system: BxPC3FP5; assay: Proliferation panel assay, BxPC3FP5; type: cell-based; settings: 120 h; Pancreas, BxPC3FP5, 5 days; read-out: Cellular Proliferation EC50
# Protocol: as §1, §2, §3
# [11] = test system: MV4-11 human AML xenograft; assay: Xenograft tumor growth inhibition assay, MV4-11; type: in vivo, mice; settings: MV4-11 xenograft
# Protocol: as §4
# [12] = test system: PC3M; assay: Proliferation panel assay, PC3M; type: cell-based; settings: Homo sapiens, PC-3M, 120 h, Prostate, 5 days, read-out: Cellular Proliferation EC50
# Protocol: as §1, §2, §3
# [13] = test system: MDAMB453; assay: Proliferation panel assay, MDAMB453; type: cell-based; settings: Homo sapiens, MDA-MB-453, 120 h; Breast, MDAMB453, 5 days; read-out: Cellular Proliferation EC50
# Protocol: as §1, §2, §3
# [14] = test system: Ramos human B cell lymphoma cancer xenograft; assay: Xenograft tumor growth inhibition assay, Ramos; type: in vivo, mice; settings: 100 mg/kg/day PO
# Protocol: as §4
smiles,measurement,setting,value
"Cc1[nH]c(-c2cc(NS(C)(=O)=O)ccc2Oc2ccccc2)c2c1C(=O)CCC2 [Example 40, N-[3-(3-methyl-4-oxo-4,5,6,7-tetrahydro-2H-isoindol-1-yl)-4-phenoxyphenyl]methanesulfonamide]",EC50,[1],210 nM
same,EC50,[2],> 10 µM
same,% TGI (tumor growth inhibition),"[3]; group 2, 100 mg/kg/day PO",78*** %
same,% TGD (tumor growth delay),"[3]; group 2, 100 mg/kg/day PO",29*** %
same,% TGI (tumor growth inhibition),"[3]; group 3, 30 mg/kg/day PO",48*** %
same,% TGD (tumor growth delay),"[3]; group 3, 30 mg/kg/day PO",22*** %
same,% TGI (tumor growth inhibition),"[3]; group 4, 10 mg/kg/day PO",18%
same,% TGD (tumor growth delay),"[3]; group 4, 10 mg/kg/day PO",17%
same,% TGI (tumor growth inhibition),"[3]; group 5, 100 mg/kg/day PO",80*** %
same,% TGD (tumor growth delay),"[3]; group 5, 100 mg/kg/day PO",28*** %
same,% TGI (tumor growth inhibition),"[3]; group 6, 20 mg/kg/day PO",30* %
same,% TGD (tumor growth delay),"[3]; group 6, 20 mg/kg/day PO",19* %
same,EC50,[4],310 nM
same,EC50,[5],370 nM
same,EC50,[6],450 nM
same,% TGI (tumor growth inhibition),[7]; 10 mg/kg/day PO,−1%
same,% TGI (tumor growth inhibition),[7]; 30 mg/kg/day PO,14%
same,% TGI (tumor growth inhibition),[7]; 100 mg/kg/day PO,52** %
same,EC50,[8],36 nM
same,EC50,[9],176 nM
same,EC50,[10],70 nM
same,mortality,"[11]; 25 mg/kg/day PO, BID x 14",^b10% mortality.
same,% TGI (tumor growth inhibition),"[11]; 25 mg/kg/day PO, BID x 14, based on day 31",14^b %
same,mortality,"[11]; 50 mg/kg/day PO, BID x 14",^c30% mortality
same,% TGI (tumor growth inhibition),"[11]; 50 mg/kg/day PO, BID x 14, based on day 31",42^c** %
same,mortality,"[11]; 100 mg/kg/day PO, BID 5 on, 3 off x 2",^d40% mortality
same,% TGI (tumor growth inhibition),"[11]; 100 mg/kg/day PO, BID 5 on, 3 off x 2, based on day 31",67^d** %
same,EC50,[12],410 nM
same,EC50,[13],220 nM
same,% TGI (tumor growth inhibition),"[14]; BID (5on 3off) x 2, based on day 31",35*** %
same,% TGD (tumor growth delay),"[14]; BID (5on 3off) x 2, endpoint 1000 mm^3",40** %
same,% TGI (tumor growth inhibition),"[14]; QDx14, based on day 31",30* %
same,% TGD (tumor growth delay),"[14]; QDx14, endpoint 1000 mm^3",40* %
